Measurements from patent US9586928B2 (The Scripps Research Institute, priority 2011, dated 2017).

Experiments:
RORβ = molecular target: T1, RORβ (Homo sapiens, UniProt Q92753); assay: Binding of radiolabeled T1317 to RORβ; conditions: radiolabeled compound
T1 sequence (Q92753 1-470): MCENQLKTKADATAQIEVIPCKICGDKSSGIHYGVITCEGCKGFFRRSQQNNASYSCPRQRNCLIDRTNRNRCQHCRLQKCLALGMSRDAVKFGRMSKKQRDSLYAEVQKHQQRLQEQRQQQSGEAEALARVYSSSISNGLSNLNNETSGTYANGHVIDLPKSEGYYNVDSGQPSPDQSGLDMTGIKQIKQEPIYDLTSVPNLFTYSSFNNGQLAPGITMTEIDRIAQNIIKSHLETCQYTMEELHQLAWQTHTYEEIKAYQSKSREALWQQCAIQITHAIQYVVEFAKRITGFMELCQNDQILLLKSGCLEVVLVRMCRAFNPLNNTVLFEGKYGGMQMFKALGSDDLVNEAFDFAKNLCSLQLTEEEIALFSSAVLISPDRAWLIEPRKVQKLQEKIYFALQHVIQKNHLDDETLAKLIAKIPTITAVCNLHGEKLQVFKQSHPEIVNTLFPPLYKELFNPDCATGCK

LXR = molecular target: T2, LXR (Homo sapiens, UniProt Q13133); assay: Gal4-LXRα / UAS luciferase cotransfection assay; assay type: cell-based; conditions: Gal4 chimeric cotransfection
T2 sequence (Q13133 209-447 limits assumed): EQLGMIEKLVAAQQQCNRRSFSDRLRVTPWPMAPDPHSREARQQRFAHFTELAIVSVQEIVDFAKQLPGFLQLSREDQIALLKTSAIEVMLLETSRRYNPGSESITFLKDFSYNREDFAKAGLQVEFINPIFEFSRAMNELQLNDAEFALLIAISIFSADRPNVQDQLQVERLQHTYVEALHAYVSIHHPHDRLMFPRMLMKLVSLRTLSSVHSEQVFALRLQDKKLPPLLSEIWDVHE

RORα [1] = molecular target: T3, RORα (Homo sapiens, UniProt P35398); assay: IL-17 promoter luciferase reporter with full-length RORα; assay type: cell-based
T3 sequence (P35398 1-523): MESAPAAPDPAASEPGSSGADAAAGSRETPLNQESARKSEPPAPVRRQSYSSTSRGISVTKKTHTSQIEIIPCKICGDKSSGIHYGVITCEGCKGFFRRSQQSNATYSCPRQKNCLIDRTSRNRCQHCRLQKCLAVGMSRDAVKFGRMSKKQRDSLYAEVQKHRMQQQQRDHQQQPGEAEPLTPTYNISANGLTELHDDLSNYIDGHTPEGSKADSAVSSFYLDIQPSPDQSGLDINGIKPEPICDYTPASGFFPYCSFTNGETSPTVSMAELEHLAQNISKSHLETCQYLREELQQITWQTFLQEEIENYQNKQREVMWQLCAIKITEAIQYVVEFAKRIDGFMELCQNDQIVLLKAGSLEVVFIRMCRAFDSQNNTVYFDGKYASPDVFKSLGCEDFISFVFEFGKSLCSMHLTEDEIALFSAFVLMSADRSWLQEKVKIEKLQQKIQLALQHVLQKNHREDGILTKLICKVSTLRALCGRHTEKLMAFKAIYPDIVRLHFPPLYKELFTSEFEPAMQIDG
Text: Since RORα and RORγ are critical regulators of IL-17 gene expression, we examined whether SR1555 would affect RORα and RORγ-dependent regulation of an IL-17 promoter driven luciferase reporter construct. HEK293 cells were transiently transfected with an IL-17 reporter, either full-length RORα or RORγ, and treated with an increasing concentration of SR1555[8]. In a dose dependent manner, SR1555 suppressed IL-17 promoter driven activity by RORγ but not RORα, further confirming that SR1555 is indeed a RORγ-specific inverse agonist (FIG. 1d). Finally, using EL4 cells, a murine thymoma which endogenously express RORα, RORγ t, and IL-17A, we examined whether SR1555 affected endogenous IL-17 gene expression. EL4 cells were treated with DMSO or SR1555 for 24 hours and analyzed for Il17a gene expression by quantitative real-time PCR.
Cotransfection assays were performed as previously described in HEK293 cells (Gal4 cotransfection assay or IL-17 luciferase reporter)[8]. […]
HEK293 cells were maintained in Dulbecco's modified Eagle's medium (DMEM) supplemented with 10% fetal bovine serum at 37° C. under 5% CO2. […] The luciferase levels were assayed following additional 20 hour incubation by one-step addition of BriteLite Plus (Perkin Elmer) and read using an Envision (Perkin Elmer). […]

EL4 cells = assay: Il17a gene expression in EL4 cells by quantitative real-time PCR; assay type: cell-based, murine; conditions: 10 μM, 24 hours
Protocol: […]. Cotransfection assays were performed as previously described in HEK293 cells (Gal4 cotransfection assay or IL-17 luciferase reporter)[8]. HEK293 and the mouse lymphoma EL4 (ATCC) cells were maintained in DMEM supplemented with 10% FBS plus antibiotics (penicillin and streptomycin; Invitrogen).
(§1) RNA extraction and QRT-PCR analysis was performed as previously described.

RORα [2] = molecular target: T4, RORα (Homo sapiens, UniProt P35398); assay: Competitive radioligand binding assay on RORα; conditions: data not shown
T4 construct: expressed in transfected cells; host or cells: HEK293T
T4 sequence (P35398 272-510 limits assumed): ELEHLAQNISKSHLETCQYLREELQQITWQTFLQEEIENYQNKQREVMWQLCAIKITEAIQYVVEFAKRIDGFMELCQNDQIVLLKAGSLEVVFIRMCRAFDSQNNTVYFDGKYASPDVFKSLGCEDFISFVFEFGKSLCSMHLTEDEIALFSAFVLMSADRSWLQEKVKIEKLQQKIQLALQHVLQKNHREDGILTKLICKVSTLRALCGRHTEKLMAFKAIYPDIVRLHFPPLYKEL
Text: Concurrent with our characterization of SR1001, several other groups identified RORγ-specific inverse agonists. Similar to SR1001, these ligands inhibited TH17 cell development and function. […] Compounds were identified using a screening approach similar to SR1001 and a RORγ-selective inverse agonist. SR1555, was identified (FIG. 1a). Compound SR1555 is shown as compound 3 in Table 1. […] Next we examined the direct binding of SR1555 to RORα and RORγ in competitive radioligand binding assays.

T regulatory cells = assay: T regulatory cell differentiation of splenocytes (RTPCR, Foxp3 FACS); assay type: cell-based, murine; conditions: 10 μM
Protocol: Therefore, the environmental cues associated with the concentration of TGF[…] dictates the balance between TH17 and T regulatory cell differentiation. In light of the reciprocal relationship between these two cell types, we assessed whether SR1555 affected the development of T regulatory cells in vitro. Splenocytes were cultured under T regulatory cell polarizing conditions (TGFβ and IL-2) for 3 days. […] To determine whether the gene expression data would correlate with protein expression, we again cultured splenocytes for 5 days under T regulatory cell polarizing conditions in the presence of DMSO or SR1555 and examined the expression of Foxp3 by intracellular cytokine FACS analysis.
Splenocytes were differentiated under the following conditions: iTreg-10 μg/mL anti-IFNγ, 10 μg/mL anti-IL-4, and 2 ng/mL TGFβ (R&D Systems); 20 ug/mL anti-IFNγ, 20 ug/mL anti-IL-4, 1 ng/mL TGFβ, and 10 ng/mL IL-6 (R&D Systems) for TH17 conditions. All cultures were stimulated with 1 μg/mL anti-CD3 (eBiosciences) and 1 μg/mL anti-CD28 (eBiosciences). Four to five days after activation, all cells were restimulated with 5 ng/mL phorbol-12-myristate-13-acetate (PMA) (Sigma) and 500 ng/mL ionomycin (Sigma) for 2 hours with the addition of GolgiStop (BD Bioscience) for an additional 2 hours before intracellular staining. Cells were cultured in RPMI 1640 medium (Invitrogen) with 10% FBS and antibiotics.
as §1

FXR = molecular target: T5, FXR (Homo sapiens, UniProt Q96RI1); assay: Gal4-FXR / UAS luciferase cotransfection assay; assay type: cell-based; conditions: Gal4 chimeric cotransfection
T5 sequence (Q96RI1 262-486 limits assumed): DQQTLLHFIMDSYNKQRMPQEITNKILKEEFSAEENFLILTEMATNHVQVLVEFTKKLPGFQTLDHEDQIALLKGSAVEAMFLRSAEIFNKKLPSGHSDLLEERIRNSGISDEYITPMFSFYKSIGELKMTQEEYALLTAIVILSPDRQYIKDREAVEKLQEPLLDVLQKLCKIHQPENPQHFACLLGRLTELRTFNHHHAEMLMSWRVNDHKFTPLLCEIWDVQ

RORα [3] = molecular target: T4, RORα; assay: Gal4-RORα LBD / UAS luciferase cotransfection assay; assay type: cell-based; conditions: Gal4 chimeric cotransfection
[4] = T regulatory polarizing conditions, 3 days

Row | binding to RORβ (RORβ) | Structure (SMILES) | effect on LXR activity (LXR) | IL-17 promoter driven activity by RORα (RORα [1]) | inhibition of Il17a gene expression (EL4 cells) | displacement of [3H]T0901317 from RORα (RORα [2]) | expression of Foxp3+ T cells (T regulatory cells; 5 days, FACS) | gene expression of Foxp3 (T regulatory cells; [4]) | gene expression of Rorγt (T regulatory cells; [4]) | effect on transcriptional activity of FXR (FXR) | effect on transcriptional activity of RORα (RORα [3])
1 | does in fact bind to RORβ | O=S(=O)(c1ccccc1)N(CC(F)(F)F)c1ccc(C(O)(C(F)(F)F)C(F)(F)F)cc1 [Compound T1317] | – | – | – | – | – | – | – | – | –
2 | – | CC(=O)N1CCN(Cc2ccc(-c3ccc(C(O)(C(F)(F)F)C(F)(F)F)cc3)cc2)CC1 [SR1555] | devoid of LXR, FXR, and RORα activity | not RORα | greater than 70% | not RORα | almost two-fold increase | effectively increased the gene expression of Foxp3 | suppressing the gene expression of Rorγt | devoid of LXR, FXR, and RORα activity | devoid of LXR, FXR, and RORα activity
